Values of other authors, collected in patent US20110118243A1, “ANTI-INFLAMMATORY DRUG DELIVERY SYSTEM” (priority 2008, published 2011).

Settings: in horses

Plasma half-life: 5 to 6 h
Structure (SMILES): CCCCC1C(=O)N(c2ccccc2)N(c2ccccc2)C1=O [phenylbutazone, 4-butyl-diphenyl-3,5-pyrazoidinedione]
